According to US10894817B2, “Fatty acid modified urocortin-2 analogs for the treatment of diabetes and chronic kidney disease” (priority 2016, dated 2021):
pEC50: −log10 of the molar value. Like-named read-outs stand apart in the source and are kept apart here. Starred links: 1 amine or outer side, 2 acyl side, 3 side chain; linkers in the order of their positions; H or OH if unused. Residues, ends and D or L forms follow the SMILES beside them. Groups on a side chain read outwards from the residue. *: point of attachment. C18 diacid = O=C(O)CCCCCCCCCCCCCCCCC(=O)*; γGlu = O=C(O)[C@H](CCC(=O)[*:2])N[*:1]; Palmitoyl = CCCCCCCCCCCCCCCC(=O)*; AEEA = NCCOCCOCC(=O)O

Target: T1, human CRHR2b (Homo sapiens, UniProt Q13324)
T1 construct: expressed in transfected cells; host or cells: Chinese Hamster Ovary (CHO) cells, transient transfection
T1 sequence (Q13324 1-438 isoform Q13324-2): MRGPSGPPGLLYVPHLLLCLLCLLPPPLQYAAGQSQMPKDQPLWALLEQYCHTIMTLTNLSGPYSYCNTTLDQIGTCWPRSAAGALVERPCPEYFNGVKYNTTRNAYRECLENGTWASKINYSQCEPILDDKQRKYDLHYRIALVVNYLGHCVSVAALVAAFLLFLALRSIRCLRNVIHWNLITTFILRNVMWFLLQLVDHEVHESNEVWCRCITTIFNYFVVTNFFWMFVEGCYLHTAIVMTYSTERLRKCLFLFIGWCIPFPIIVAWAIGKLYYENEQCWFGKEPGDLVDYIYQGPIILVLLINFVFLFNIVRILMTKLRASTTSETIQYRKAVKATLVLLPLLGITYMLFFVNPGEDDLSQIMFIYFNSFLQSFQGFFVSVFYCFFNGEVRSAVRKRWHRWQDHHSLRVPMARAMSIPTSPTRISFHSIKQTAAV
Experiment: human CRHR2b cell-based cAMP assay
Summary of the method: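 ED50 values are means ± SEM over several runs, curve-fitted from cAMP in pmol, calibrated against unlabeled-cAMP standards. Detection was HTRF competition, ratio 665/620 nm, after 30 min agonist exposure at 37 °C.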

[1] = cAMP assay, Table 26, compounds of Example 9, read-out: hCRHR2b Average EC50

| SMILES | pEC50 [1] | pEC50 |
| --- | --- | --- |
| CCCCCCCCCCCCCCCC(=O)N[C@@H](CCC(=O)NCCCC[C@H](NC(=O)[C@H](CCC(N)=O)NC(=O)[C@H](CCCCN)NC(=O)[C@H](CCC(=O)O)NC(=O)[C@H](CCCCN)NC(=O)[C@H](CCC(=O)O)NC(=O)[C@H](CCC(N)=O)NC(=O)[C@H](CCCCN)NC(=O)[C@H](CCC(=O)O)NC(=O)[C@H](CCC(N)=O)NC(=O)[C@H](CCC(=O)O)NC(=O)[C@H](CC(C)C)NC(=O)[C@H](CC(C)C)NC(=O)[C@@H](NC(=O)[C@H](CCC(N)=O)NC(=O)[C@H](CC(C)C)NC(=O)[C@H](CC(C)C)NC(=O)CNC(=O)[C@@H](NC(=O)[C@@H]1CCCN1C(=O)[C@@H](NC(=O)[C@H](CC(=O)O)NC(=O)[C@H](CC(C)C)NC(=O)[C@H](CO)NC(=O)[C@H](CC(C)C)NC(=O)[C@@H](NC(=O)[C@@H](N)[C@@H](C)CC)C(C)C)C(C)C)[C@@H](C)CC)[C@@H](C)CC)C(=O)N[C@@H](C)C(=O)N[C@H](C(=O)N[C@H](C(=O)N[C@@H](CC(N)=O)C(=O)N[C@@H](C)C(=O)N[C@@H](CCCNC(=N)N)C(=O)N[C@H](C(=O)N[C@@H](CC(C)C)C(=O)N[C@@H](C)C(=O)N[C@@H](CCCNC(=N)N)C(=O)N[C@H](C(N)=O)C(C)C)[C@@H](C)CC)[C@@H](C)O)[C@@H](C)O)C(=O)O [Compound 35] (H-IVLSLDVPIGLLQILLEQEKQEKEKQK([γGlu-Palmitoyl])ATTNARILARV-NH2) | 6.39 | – |
| CC[C@H](C)[C@H](N)C(=O)N[C@H](C(=O)N[C@@H](CC(C)C)C(=O)N[C@@H](CO)C(=O)N[C@@H](CC(C)C)C(=O)N[C@@H](CC(=O)O)C(=O)N[C@H](C(=O)N1CCC[C@H]1C(=O)N[C@H](C(=O)NCC(=O)N[C@@H](CC(C)C)C(=O)N[C@@H](CC(C)C)C(=O)N[C@@H](CCC(N)=O)C(=O)N[C@H](C(=O)N[C@@H](CC(C)C)C(=O)N[C@@H](CC(C)C)C(=O)N[C@@H](CCCCNC(=O)COCCOCCNC(=O)COCCOCCNC(=O)CC[C@H](NC(=O)CC[C@H](NC(=O)CCCCCCCCCCCCCCCCC(=O)O)C(=O)O)C(=O)O)C(=O)N[C@@H](CCC(N)=O)C(=O)N[C@@H](CCC(=O)O)C(=O)N[C@@H](CCCCN)C(=O)N[C@@H](CCC(N)=O)C(=O)N[C@@H](CCC(=O)O)C(=O)N[C@@H](CCCCN)C(=O)N[C@@H](CCC(=O)O)C(=O)N[C@@H](CCCCN)C(=O)N[C@@H](CCC(N)=O)C(=O)N[C@@H](CCC(N)=O)C(=O)N[C@@H](C)C(=O)N[C@H](C(=O)N[C@@H](CCC(=O)O)C(=O)N[C@@H](CC(N)=O)C(=O)N[C@@H](C)C(=O)N[C@@H](CCC(N)=O)C(=O)N[C@H](C(=O)N[C@@H](CC(C)C)C(=O)N[C@@H](C)C(=O)N[C@@H](CCC(N)=O)C(=O)N[C@H](C(N)=O)C(C)C)[C@@H](C)CC)[C@@H](C)O)[C@@H](C)CC)[C@@H](C)CC)C(C)C)C(C)C [Compound 53] (H-IVLSLDVPIGLLQILLK([AEEA-AEEA-γGlu-γGlu-C18 diacid])QEKQEKEKQQATENAQILAQV-NH2) | – | 8.40 |
| CCCCCCCCCCCCCCCC(=O)N[C@@H](CCC(=O)NCCCC[C@H](NC(=O)[C@H](CCCCN)NC(=O)[C@H](CCC(=O)O)NC(=O)[C@H](CCC(N)=O)NC(=O)[C@H](CCC(=O)O)NC(=O)[C@H](CC(C)C)NC(=O)[C@H](CC(C)C)NC(=O)[C@@H](NC(=O)[C@H](CCC(N)=O)NC(=O)[C@H](CC(C)C)NC(=O)[C@H](CC(C)C)NC(=O)CNC(=O)[C@@H](NC(=O)[C@@H]1CCCN1C(=O)[C@@H](NC(=O)[C@H](CC(=O)O)NC(=O)[C@H](CC(C)C)NC(=O)[C@H](CO)NC(=O)[C@H](CC(C)C)NC(=O)[C@@H](NC(=O)[C@@H](N)[C@@H](C)CC)C(C)C)C(C)C)[C@@H](C)CC)[C@@H](C)CC)C(=O)N[C@@H](CCC(=O)O)C(=O)N[C@@H](CCCCN)C(=O)N[C@@H](CCC(=O)O)C(=O)N[C@@H](CCCCN)C(=O)N[C@@H](CCC(N)=O)C(=O)N[C@@H](CCC(N)=O)C(=O)N[C@@H](C)C(=O)N[C@H](C(=O)N[C@H](C(=O)N[C@@H](CC(N)=O)C(=O)N[C@@H](C)C(=O)N[C@@H](CCCNC(=N)N)C(=O)N[C@H](C(=O)N[C@@H](CC(C)C)C(=O)N[C@@H](C)C(=O)N[C@@H](CCCNC(=N)N)C(=O)N[C@H](C(N)=O)C(C)C)[C@@H](C)CC)[C@@H](C)O)[C@@H](C)O)C(=O)O [Compound 26] (H-IVLSLDVPIGLLQILLEQEKK([γGlu-Palmitoyl])EKEKQQATTNARILARV-NH2) | 7.81 | – |

Further compounds by rising pEC50 [1], results first:

| pEC50 [1] | SMILES | pEC50 |
| --- | --- | --- |
| 6.48 | CCCCCCCCCCCCCCCC(=O)N[C@@H](CCC(=O)NCCCC[C@H](NC(=O)[C@H](CCC(N)=O)NC(=O)[C@H](CCC(N)=O)NC(=O)[C@H](CCCCN)NC(=O)[C@H](CCC(=O)O)NC(=O)[C@H](CCCCN)NC(=O)[C@H](CCC(=O)O)NC(=O)[C@H](CCC(N)=O)NC(=O)[C@H](CCCCN)NC(=O)[C@H](CCC(=O)O)NC(=O)[C@H](CCC(N)=O)NC(=O)[C@H](CCC(=O)O)NC(=O)[C@H](CC(C)C)NC(=O)[C@H](CC(C)C)NC(=O)[C@@H](NC(=O)[C@H](CCC(N)=O)NC(=O)[C@H](CC(C)C)NC(=O)[C@H](CC(C)C)NC(=O)CNC(=O)[C@@H](NC(=O)[C@@H]1CCCN1C(=O)[C@@H](NC(=O)[C@H](CC(=O)O)NC(=O)[C@H](CC(C)C)NC(=O)[C@H](CO)NC(=O)[C@H](CC(C)C)NC(=O)[C@@H](NC(=O)[C@@H](N)[C@@H](C)CC)C(C)C)C(C)C)[C@@H](C)CC)[C@@H](C)CC)C(=O)N[C@H](C(=O)N[C@H](C(=O)N[C@@H](CC(N)=O)C(=O)N[C@@H](C)C(=O)N[C@@H](CCCNC(=N)N)C(=O)N[C@H](C(=O)N[C@@H](CC(C)C)C(=O)N[C@@H](C)C(=O)N[C@@H](CCCNC(=N)N)C(=O)N[C@H](C(N)=O)C(C)C)[C@@H](C)CC)[C@@H](C)O)[C@@H](C)O)C(=O)O [Compound 36] (H-IVLSLDVPIGLLQILLEQEKQEKEKQQK([γGlu-Palmitoyl])TTNARILARV-NH2) | – |
| 8.06 | CCCCCCCCCCCCCCCC(=O)N[C@@H](CCC(=O)NCCCC[C@H](NC(=O)[C@H](CCCCN)NC(=O)[C@H](CCC(=O)O)NC(=O)[C@H](CCCCN)NC(=O)[C@H](CCC(=O)O)NC(=O)[C@H](CCC(N)=O)NC(=O)[C@H](CCCCN)NC(=O)[C@H](CCC(=O)O)NC(=O)[C@H](CCC(N)=O)NC(=O)[C@H](CCC(=O)O)NC(=O)[C@H](CC(C)C)NC(=O)[C@H](CC(C)C)NC(=O)[C@@H](NC(=O)[C@H](CCC(N)=O)NC(=O)[C@H](CC(C)C)NC(=O)[C@H](CC(C)C)NC(=O)CNC(=O)[C@@H](NC(=O)[C@@H]1CCCN1C(=O)[C@@H](NC(=O)[C@H](CC(=O)O)NC(=O)[C@H](CC(C)C)NC(=O)[C@H](CO)NC(=O)[C@H](CC(C)C)NC(=O)[C@@H](NC(=O)[C@@H](N)[C@@H](C)CC)C(C)C)C(C)C)[C@@H](C)CC)[C@@H](C)CC)C(=O)N[C@@H](CCC(N)=O)C(=O)N[C@@H](C)C(=O)N[C@H](C(=O)N[C@H](C(=O)N[C@@H](CC(N)=O)C(=O)N[C@@H](C)C(=O)N[C@@H](CCCNC(=N)N)C(=O)N[C@H](C(=O)N[C@@H](CC(C)C)C(=O)N[C@@H](C)C(=O)N[C@@H](CCCNC(=N)N)C(=O)N[C@H](C(N)=O)C(C)C)[C@@H](C)CC)[C@@H](C)O)[C@@H](C)O)C(=O)O [Compound 33] (H-IVLSLDVPIGLLQILLEQEKQEKEKK([γGlu-Palmitoyl])QATTNARILARV-NH2) | – |
